Experimental data published in patent US20050282840A1, “Methods of modulating neurotrophin-mediated activity” (PainCeptor Pharma Corporation, priority 2004, published 2005).
Like-named read-outs stand apart in the source and are kept apart here.

What was measured:
[1] = biological target: T1, p75^NTR receptors (PC12 cells) (Rattus norvegicus, UniProt P07174); experiment: Basic screening assay: binding of 125I-BDNF to PC12 cells; conditions: read-out: BDNF Activity % Maximal Binding
T1 construct: endogenous in cells; host or cells: PC12 cells
T1 sequence (P07174 30-425): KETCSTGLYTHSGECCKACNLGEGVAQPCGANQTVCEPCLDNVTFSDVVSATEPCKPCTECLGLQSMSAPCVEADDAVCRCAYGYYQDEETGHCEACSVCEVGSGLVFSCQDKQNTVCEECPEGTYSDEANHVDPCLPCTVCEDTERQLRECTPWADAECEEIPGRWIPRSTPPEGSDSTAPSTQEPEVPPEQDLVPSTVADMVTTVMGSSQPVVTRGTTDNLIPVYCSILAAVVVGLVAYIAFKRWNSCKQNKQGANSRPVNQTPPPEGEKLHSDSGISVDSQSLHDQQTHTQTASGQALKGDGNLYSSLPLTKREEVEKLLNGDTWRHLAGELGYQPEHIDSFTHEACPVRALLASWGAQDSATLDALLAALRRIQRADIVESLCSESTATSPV
T1 sequence (P23560 129-247 partner): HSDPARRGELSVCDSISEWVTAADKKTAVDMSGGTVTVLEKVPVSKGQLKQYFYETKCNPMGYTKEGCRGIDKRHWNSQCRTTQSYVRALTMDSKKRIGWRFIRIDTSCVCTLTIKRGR
Protocol: (§1) The compounds were screened for effects on binding of ^125I-BDNF or ^125I-NGF to PC12 cells (p75^NTR receptors), and those that inhibited binding were further tested to determine the EC50 for this inhibition.
(§2) PC12 cells were cultured and prepared for binding assays as described in Example 1.
(§3) Lypophilized Peprotech human recombinant BDNF (Cedarlane Laboratories, Toronto, Canada, cat. # PE 450-02-10) was reconstituted under sterile conditions to 3.5 μM in sterile HKR/1%BSA, and either used immediately or stored in aliquots of 20 μl at −80° C. Immediately prior to use, a 15 nM (30×) solution of ^125I-BDNF or ^125I-NGF was prepared in HKR buffer, and was used at 0.5 nM final concentration.
(§4) Test Compounds were dissolved to 10 mM in DMSO, and those that were not initially soluble were warmed to 40-50° C. and vortexed. Those compounds that were still not in solution were reported as such. Compounds were then stored in this form at −20° C. until use. Immediately before experiments, 100 mM compounds were diluted to 10 mM in DMSO (1:10), followed by a further dilution to 1 mM (1:10) with distilled water, and a further dilution to 500 μM (1:1) with HKR.
(§5) Assays to determine maximum binding (Bmax), non-specific binding (NSB), and binding in the presence of each test compound (e.g., x, y) were performed at least in duplicate. In a total volume of 300 μL, 4×10^6 PC12 cells were incubated, rotating for 2 h at 4° C. with the following:
(§6) At the conclusion of the binding reaction, 100 μL aliquots of the reaction mixtures were carefully layered over 200 μL of a 10% glycerol solution in a 0.4 mL tube, and subjected to centrifugation in a microcentrifuge for 2 minutes at half maximum speed. The cell pellets containing the bound ^125I-BDNF or ^125I-NGF were then measured using a gamma counter. The mean values of the replicates were then calculated to determine the value for maximum binding (Bmax) and nonspecific binding (NSB), and binding in the presence of test compound at 50 μM (Bx). Specific binding (SB) was measured by subtracting the NSB from the Bmax.

[2] = system: p75^NTR receptors (PC12 cells); experiment: Basic screening assay: binding of 125I-NGF to PC12 cells; conditions: Table 1; test compound 50 μM; 0.5 nM 125I-NGF; PC12 cells; 2 h at 4° C.; specific binding as percent of control
Protocol: as §1, §2
Lyophilized Serotec mouse 2.5S NGF (Cedarlane Laboratories, Toronto, Canada, cat. # PMP 04Z) was reconstituted under sterile conditions to 1 mg/mL (38 μM) in sterile 0.2% acetic acid, and 100 μL or 50 μL aliquots were stored frozen at −80° C.
as §3, §4, §5
as §6, with “Bmax. Specific binding in the presence of the test compound (SBx) was determined by subtracting the NSB from the Bx for each test compound; and each SBx was divided by SB and multiplied by 100 to give the specific binding in the presence of the compound as a percent of control specific binding.” for “Bmax.”

[3] = Table 1, test compound 50 μM, 0.5 nM 125I-BDNF, PC12 cells, 2 h at 4° C., specific binding as percent of control

O=C1NC(=S)NC(=O)C1=Cc1ccc(-c2ccc([N+](=O)[O-])cc2Br)o1 [Compound 1, 5-[5-(2-Bromo-4-nitrophenyl)furan-2-ylmethylene]-2-thioxo-dihydro-pyrimidine-4,6-dione]
activity at 50 µM [1]: 0 to 10%
NGF Activity % Maximal Binding [2]: * (50 < *)

Cc1ccc([N+](=O)[O-])cc1-c1ccc(/C=C2/SC(=S)NC2=O)o1 [Compound 2, 5-[5-(2-Methyl-5-nitrophenyl)furan-2-ylmethylene]-2-thioxo-thiazolidin-4-one]
activity at 50 µM [1, 3]: 0 to 10%
NGF Activity % Maximal Binding [2]: * (50 < *)

O=C1NC(=S)NC(=O)C1=Cc1ccc(-c2ccc([N+](=O)[O-])cc2Cl)o1 [Compound 4, 5-[5-(2-Chloro-4-nitrophenyl)furan-2-ylmethylene]-2-thioxo-dihydro-pyrimidine-4,6-dione]
activity at 50 µM [1]: 0 to 10%
NGF Activity % Maximal Binding [2]: * (50 < *)

O=C1NC(=S)S/C1=C/c1ccc(-c2ccc([N+](=O)[O-])cc2Cl)o1 [Compound 5, 5-[5-(2-Chloro-4-nitrophenyl)furan-2-ylmethylene]-2-thioxo-thiazolidin-4-one]
activity at 50 µM [1, 3]: 0 to 10%
NGF Activity % Maximal Binding [2]: * (50 < *)

O=C1NC(=S)NC(=O)C1=Cc1ccc(-c2ccc(C(=O)O)cc2)o1 [Compound 6, 4-[5-(4,6-Dioxo-2-thioxo-tetrahydro-pyrimidin-5-ylidenemethyl)furan-2-yl]benzoic acid]
activity at 50 µM [1]: 0 to 10%
NGF Activity % Maximal Binding [2]: * (50 < *)

Cc1cc([N+](=O)[O-])ccc1-c1ccc(C=C2SC(=S)NC2=O)o1 [Compound 7, 5-[5-(2-Methyl-4-nitrophenyl)furan-2-ylmethylene]-2-thioxo-thiazolidin-4-one]
activity at 50 µM [1, 3]: 0 to 10%
NGF Activity % Maximal Binding [2]: * (50 < *)

COc1ccc(-c2ccc(C=C3C(=O)NC(=S)NC3=O)o2)cc1[N+](=O)[O-] [Compound 8, 5-[5-(4-Methoxy-3-nitrophenyl)furan-2-ylmethylene]-2-thioxo-dihydro-pyrimidine-4,6-dione]
activity at 50 µM [1]: 0 to 10%
NGF Activity % Maximal Binding [2]: * (50 < *)

Cc1cccc(N2NC(=O)C(=Cc3ccc(-c4ccc(S(N)(=O)=O)cc4)o3)C2=O)c1 [Compound 9, 4-[5-(3,5-Dioxo-1-m-tolyl-pyrazolidin-4-ylidenemethyl)furan-2-yl]benzenesulfonamide]
activity at 50 µM [1, 3]: 0 to 10%
NGF Activity % Maximal Binding [2]: * (50 < *)

O=C(O)CCN1C(=O)C(=Cc2ccc(-c3ccc([N+](=O)[O-])cc3)o2)SC1=S [Compound 10, 3-{5-[5-(4-Nitrophenyl)furan-2-ylmethylene]-4-oxo-2-thioxo-thiazolidin-3-yl}-propionic acid]
activity at 50 µM [1, 3]: 0 to 10%
NGF Activity % Maximal Binding [2]: * (50 < *)

O=C1NC(=O)C(=Cc2ccc(-c3ccc([N+](=O)[O-])cc3Cl)o2)C(=O)N1 [Compound 11, 5-[5-(2-Chloro-4-nitrophenyl)furan-2-ylmethylene]-pyrimidine-2,4,6-trione]
activity at 50 µM [1]: 0 to 10%
NGF Activity % Maximal Binding [2]: * (50 < *)

CCCCOC(=O)c1ccc(-c2ccc(/C=C3/SC(=S)N(CC(=O)O)C3=O)o2)cc1 [Compound 12, 4-[5-(3-Carboxymethyl-4-oxo-2-thioxo-thiazolidin-5-ylidenemethyl)furan-2-yl]benzoic acid butyl ester]
activity at 50 µM [1, 3]: 0 to 10%
NGF Activity % Maximal Binding [2]: * (50 < *)

O=C(O)c1ccc(Cl)c(-c2ccc(/C=C3/NC(=O)N(Cc4ccc(F)cc4)C3=O)o2)c1 [Compound 13, 4-Chloro-3-{5-[1-(4-fluorobenzyl)-2,5-dioxo-imidazolidin-4-ylidenemethyl]furan-2-yl}benzoic acid]
activity at 50 µM [1, 3]: 0 to 10%
NGF Activity % Maximal Binding [2]: * (50 < *)

Cc1ccc(-c2ccc(/C=C3/SC(=S)N(CC(=O)O)C3=O)o2)cc1[N+](=O)[O-] [Compound 14, {5-[5-(4-Methyl-3-nitrophenyl)furan-2-ylmethylene]-4-oxo-2-thioxo-thiazolidin-3-yl}-acetic acid]
activity at 50 µM [1, 3]: 0 to 10%
NGF Activity % Maximal Binding [2]: * (50 < *)

Cc1cc(-c2ccc(C=C3SC(=S)N(CC(=O)O)C3=O)o2)ccc1[N+](=O)[O-] [Compound 15, {5-[5-(3-Methyl-4-nitrophenyl)furan-2-ylmethylene]-4-oxo-2-thioxo-thiazolidin-3-yl}-acetic acid]
activity at 50 µM [1, 3]: 0 to 10%

Cc1ccc(C(=O)O)cc1-c1ccc(/C=C2/NC(=O)N(c3ccccc3)C2=O)o1 [Compound 16, 3-[5-(2,5-Dioxo-1-phenyl-imidazolidin-4-ylidenemethyl)furan-2-yl]-4-methylbenzoic acid]
activity at 50 µM [1, 3]: 0 to 10%
NGF Activity % Maximal Binding [2]: * (50 < *)

CN1C(=O)NC(=O)C(=Cc2ccc(-c3ccc(C(=O)O)cc3)o2)C1=O [Compound 17, 4-[5-(1-Methyl-2,4,6-trioxo-tetrahydro-pyrimidin-5-ylidenemethyl)furan-2-yl]benzoic acid]
activity at 50 µM [1]: 0 to 10%
NGF Activity % Maximal Binding [2]: * (50 < *)

Cc1cc([N+](=O)[O-])c(C)cc1-c1ccc(C=C2C(=O)NC(=O)NC2=O)o1 [Compound 18, 5-[5-(2,5-Dimethyl-4-nitrophenyl)furan-2-ylmethylene]-pyrimidine-2,4,6-trione]
activity at 50 µM [1]: 0 to 10%
NGF Activity % Maximal Binding [2]: * (50 < *)

COC(=O)c1ccc(-c2ccc(C=C3C(=O)NC(=S)NC3=O)o2)cc1 [Compound 19, 4-[5-(4,6-Dioxo-2-thioxo-tetrahydro-pyrimidin-5-ylidenemethyl)furan-2-yl]benzoic acid methyl ester]
activity at 50 µM [1]: 0 to 10%
NGF Activity % Maximal Binding [2]: * (50 < *)

COc1ccc(-c2ccc(/C=C3\SC(=S)NC3=O)o2)cc1[N+](=O)[O-] [Compound 20, 5-[5-(4-Methoxy-3-nitrophenyl)furan-2-ylmethylene]-2-thioxo-thiazolidin-4-one]
activity at 50 µM [1, 3]: 0 to 10%
NGF Activity % Maximal Binding [2]: * (50 < *)

CCOC(=O)CN1C(=O)S/C(=C/c2ccc(-c3cc(C(=O)O)ccc3C)o2)C1=O [Compound 21, 3-[5-(3-Ethoxycarbonylmethyl-2,4-dioxo-thiazolidin-5-ylidenemethyl)furan-2-yl]-4-methylbenzoic acid]
activity at 50 µM [1, 3]: 0 to 10%
NGF Activity % Maximal Binding [2]: * (50 < *)

Cc1ccc(C(=O)O)cc1-c1ccc(/C=C2/NC(=O)NC2=O)o1 [Compound 22, 3-[5-(2,5-Dioxo-imidazolidin-4-ylidenemethyl)furan-2-yl]-4-methylbenzoic acid]
activity at 50 µM [1, 3]: 0 to 10%
NGF Activity % Maximal Binding [2]: * (50 < *)

Cc1ccc(N2NC(=O)C(=Cc3ccc(-c4ccc([N+](=O)[O-])cc4Cl)o3)C2=O)cc1C [Compound 23, 4-[5-(2-Chloro-4-nitrophenyl)furan-2-ylmethylene]-1-(3,4-dimethylphenyl)-pyrazolidine-3,5-dione]
activity at 50 µM [1, 3]: 0 to 10%
NGF Activity % Maximal Binding [2]: * (50 < *)
